We go through one compound from BindingDB's records for doi:10.1021/jm990235p (Va Medical Center, 1999).

The target in the test is aldehyde dehydrogenase (Saccharomyces cerevisiae). The test can be described thus: In vitro inhibitory activity against yeast Aldehyde dehydrogenase.

By IC50 is commonly meant the midpoint of a concentration-inhibition curve. `CCOC(=O)N(OC(=O)N(CC)CC)S(=O)(=O)c1ccccc1` [ethyl [(diethylamino)carbonyl]oxy(phenylsulfonyl)carbamate]: half-maximal inhibition (IC50) required 169 µM.
